Results: patent publication US7074789B2, “Kinase inhibitors” (Amgen Inc., priority 1999, dated 2006)
Read-outs that look alike come from different tables or passages of the source.

Legend:
Assay type in all cases: biochemical
Lck = target: T1, Lck (Homo sapiens, UniProt P06239); experiment: Kinase inhibition assay (33P transfer), Lck
T1 construct: Kinases are expressed as either kinase domains or full length constructs; made in house
Summary of the method: (§1)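 Each kinase, expressed as a GST- or polyHis-tagged domain or full-length protein, phosphorylated plate-attached poly(Glu,Tyr) 4:1 or poly(Arg,Ser) 3:1 using 33P-ATP. Bound radioactivity was measured by scintillation after a 0.5% phosphoric acid wash.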

Zap-70 = target: T2, Zap-70 (Homo sapiens, UniProt P43403); experiment: Kinase inhibition assay (33P transfer), Zap-70
T2 construct: Kinases are expressed as either kinase domains or full length constructs; made in house
T2 sequence (P43403 1-619): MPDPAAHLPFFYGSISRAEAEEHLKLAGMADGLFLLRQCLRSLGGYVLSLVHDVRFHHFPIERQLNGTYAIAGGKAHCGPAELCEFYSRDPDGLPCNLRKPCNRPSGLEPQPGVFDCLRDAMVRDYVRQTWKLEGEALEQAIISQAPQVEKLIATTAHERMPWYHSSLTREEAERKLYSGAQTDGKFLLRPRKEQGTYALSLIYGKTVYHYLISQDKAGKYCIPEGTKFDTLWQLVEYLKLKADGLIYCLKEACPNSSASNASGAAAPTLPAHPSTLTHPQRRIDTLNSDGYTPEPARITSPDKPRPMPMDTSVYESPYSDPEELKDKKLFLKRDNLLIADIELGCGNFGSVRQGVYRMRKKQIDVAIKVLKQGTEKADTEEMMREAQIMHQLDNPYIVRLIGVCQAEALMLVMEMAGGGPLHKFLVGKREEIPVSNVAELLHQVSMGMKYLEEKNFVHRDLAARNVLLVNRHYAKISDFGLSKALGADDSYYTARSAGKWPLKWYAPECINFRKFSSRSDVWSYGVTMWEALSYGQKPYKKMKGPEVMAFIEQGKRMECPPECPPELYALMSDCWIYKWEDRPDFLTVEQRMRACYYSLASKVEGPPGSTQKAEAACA
Summary of the method: as §1

Itk = target: T3, Itk (Homo sapiens, UniProt Q08881); experiment: Kinase inhibition assay (33P transfer), Itk; conditions: Table 3, class symbols; read-out: Itk-1
T3 construct: Kinases are expressed as either kinase domains or full length constructs; made in house
T3 sequence (Q08881 1-620): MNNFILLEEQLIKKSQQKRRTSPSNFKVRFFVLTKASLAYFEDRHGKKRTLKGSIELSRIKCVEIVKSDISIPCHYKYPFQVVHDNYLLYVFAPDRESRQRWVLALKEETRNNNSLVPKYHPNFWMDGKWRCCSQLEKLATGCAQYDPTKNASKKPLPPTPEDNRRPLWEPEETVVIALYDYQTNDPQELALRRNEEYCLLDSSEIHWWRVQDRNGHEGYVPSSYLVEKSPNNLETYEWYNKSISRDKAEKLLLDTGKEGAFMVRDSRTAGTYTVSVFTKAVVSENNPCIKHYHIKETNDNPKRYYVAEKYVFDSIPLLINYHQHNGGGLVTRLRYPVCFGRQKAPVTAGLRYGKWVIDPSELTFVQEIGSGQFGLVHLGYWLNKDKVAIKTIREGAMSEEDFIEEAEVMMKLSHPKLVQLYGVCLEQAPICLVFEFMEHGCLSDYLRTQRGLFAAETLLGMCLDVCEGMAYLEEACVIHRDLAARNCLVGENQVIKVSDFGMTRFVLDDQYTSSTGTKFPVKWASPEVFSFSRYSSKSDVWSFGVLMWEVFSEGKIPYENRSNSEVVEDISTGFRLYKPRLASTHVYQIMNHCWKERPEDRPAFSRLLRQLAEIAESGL
Summary of the method: (§2)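 IC50: inhibitor concentration lowering 33P incorporation into immobilised substrate by 50%. Label transferred from ATP to poly(Glu,Tyr) 4:1 or poly(Arg,Ser) 3:1 is measured after a 0.5% phosphoric acid wash by liquid scintillation.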

EGFR = target: T4, EGFR (Homo sapiens, UniProt P00533); experiment: Kinase inhibition assay (33P transfer), EGFR; conditions: Table 2, class symbols A-E; read-out: EGFR-1
T4 construct: Kinases are expressed as either kinase domains or full length constructs; made in house
Summary of the method: as §2

ErbB2 = target: T5, ErbB2 (Homo sapiens, UniProt P04626); experiment: Kinase inhibition assay (33P transfer), ErbB2; conditions: read-out: ErbB2-2
T5 construct: Kinases are expressed as either kinase domains or full length constructs; made in house
Summary of the method: as §2

Kdr = target: T6, Kdr (Homo sapiens, UniProt P35968); experiment: Kinase inhibition assay (33P transfer), Kdr; conditions: Table 3, class symbols; read-out: KDR-1
T6 construct: Kinases are expressed as either kinase domains or full length constructs; made in house
Summary of the method: as §1

c-Met = target: T7, c-Met (Homo sapiens, UniProt P08581); experiment: Kinase inhibition assay (33P transfer), c-Met; conditions: Table 2, class symbols A-E; read-out: Met-1
T7 construct: Kinases are expressed as either kinase domains or full length constructs; made in house
Summary of the method: as §2

AKT = target: T8, AKT (Homo sapiens, UniProt Q9Y243); experiment: Kinase inhibition assay (33P transfer), AKT
T8 construct: Kinases are expressed as either kinase domains or full length constructs; made in house
Summary of the method: as §1

IGFR-1 = target: T9, IGFR-1 (Homo sapiens, UniProt P08069); experiment: Kinase inhibition assay (33P transfer), IGFR-1; conditions: Table 2, class symbols A-E
T9 construct: Kinases are expressed as either kinase domains or full length constructs; made in house

[1] = Table 3, class symbols, read-out: Lck-1
[2] = Table 3, class symbols, read-out: Zap-1
[3] = Table 2, class symbols A-E, read-out: AKT3-1

T7 sequence (P08581 25-1390): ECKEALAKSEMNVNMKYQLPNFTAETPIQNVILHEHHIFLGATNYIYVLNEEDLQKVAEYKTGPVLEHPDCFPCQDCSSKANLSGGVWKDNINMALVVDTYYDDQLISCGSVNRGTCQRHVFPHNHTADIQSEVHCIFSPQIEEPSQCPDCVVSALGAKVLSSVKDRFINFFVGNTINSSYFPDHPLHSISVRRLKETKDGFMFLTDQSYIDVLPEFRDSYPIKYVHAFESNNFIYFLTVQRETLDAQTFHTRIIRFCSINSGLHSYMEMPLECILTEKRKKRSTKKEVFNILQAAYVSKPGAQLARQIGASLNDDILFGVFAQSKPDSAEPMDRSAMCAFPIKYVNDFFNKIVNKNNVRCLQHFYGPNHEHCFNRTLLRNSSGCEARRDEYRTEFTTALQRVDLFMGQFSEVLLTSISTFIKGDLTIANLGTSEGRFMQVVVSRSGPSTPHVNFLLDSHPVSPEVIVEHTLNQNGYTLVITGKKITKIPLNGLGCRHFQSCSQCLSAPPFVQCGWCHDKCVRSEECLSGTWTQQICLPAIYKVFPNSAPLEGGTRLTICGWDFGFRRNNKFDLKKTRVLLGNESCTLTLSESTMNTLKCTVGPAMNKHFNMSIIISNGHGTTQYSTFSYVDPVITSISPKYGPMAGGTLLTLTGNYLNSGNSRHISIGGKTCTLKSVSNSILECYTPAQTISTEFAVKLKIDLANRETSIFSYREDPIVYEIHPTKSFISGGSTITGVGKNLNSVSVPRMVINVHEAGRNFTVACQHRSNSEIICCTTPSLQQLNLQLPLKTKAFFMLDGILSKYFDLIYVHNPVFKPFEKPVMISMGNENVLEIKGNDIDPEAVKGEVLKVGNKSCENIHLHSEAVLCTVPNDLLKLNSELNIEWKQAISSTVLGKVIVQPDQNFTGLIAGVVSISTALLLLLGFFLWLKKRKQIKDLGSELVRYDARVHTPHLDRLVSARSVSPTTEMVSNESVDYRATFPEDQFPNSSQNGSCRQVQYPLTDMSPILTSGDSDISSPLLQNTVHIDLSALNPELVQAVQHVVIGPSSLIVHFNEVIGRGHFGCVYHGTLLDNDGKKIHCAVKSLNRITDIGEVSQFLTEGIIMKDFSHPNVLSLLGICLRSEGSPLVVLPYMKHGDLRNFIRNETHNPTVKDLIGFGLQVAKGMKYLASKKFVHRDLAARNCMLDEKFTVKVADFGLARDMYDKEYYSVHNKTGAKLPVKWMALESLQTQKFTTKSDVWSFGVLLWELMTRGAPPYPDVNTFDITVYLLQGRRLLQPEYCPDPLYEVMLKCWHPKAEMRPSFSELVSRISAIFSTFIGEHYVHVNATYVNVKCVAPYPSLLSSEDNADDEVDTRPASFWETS
T5 sequence (P04626 23-1255, species assumed): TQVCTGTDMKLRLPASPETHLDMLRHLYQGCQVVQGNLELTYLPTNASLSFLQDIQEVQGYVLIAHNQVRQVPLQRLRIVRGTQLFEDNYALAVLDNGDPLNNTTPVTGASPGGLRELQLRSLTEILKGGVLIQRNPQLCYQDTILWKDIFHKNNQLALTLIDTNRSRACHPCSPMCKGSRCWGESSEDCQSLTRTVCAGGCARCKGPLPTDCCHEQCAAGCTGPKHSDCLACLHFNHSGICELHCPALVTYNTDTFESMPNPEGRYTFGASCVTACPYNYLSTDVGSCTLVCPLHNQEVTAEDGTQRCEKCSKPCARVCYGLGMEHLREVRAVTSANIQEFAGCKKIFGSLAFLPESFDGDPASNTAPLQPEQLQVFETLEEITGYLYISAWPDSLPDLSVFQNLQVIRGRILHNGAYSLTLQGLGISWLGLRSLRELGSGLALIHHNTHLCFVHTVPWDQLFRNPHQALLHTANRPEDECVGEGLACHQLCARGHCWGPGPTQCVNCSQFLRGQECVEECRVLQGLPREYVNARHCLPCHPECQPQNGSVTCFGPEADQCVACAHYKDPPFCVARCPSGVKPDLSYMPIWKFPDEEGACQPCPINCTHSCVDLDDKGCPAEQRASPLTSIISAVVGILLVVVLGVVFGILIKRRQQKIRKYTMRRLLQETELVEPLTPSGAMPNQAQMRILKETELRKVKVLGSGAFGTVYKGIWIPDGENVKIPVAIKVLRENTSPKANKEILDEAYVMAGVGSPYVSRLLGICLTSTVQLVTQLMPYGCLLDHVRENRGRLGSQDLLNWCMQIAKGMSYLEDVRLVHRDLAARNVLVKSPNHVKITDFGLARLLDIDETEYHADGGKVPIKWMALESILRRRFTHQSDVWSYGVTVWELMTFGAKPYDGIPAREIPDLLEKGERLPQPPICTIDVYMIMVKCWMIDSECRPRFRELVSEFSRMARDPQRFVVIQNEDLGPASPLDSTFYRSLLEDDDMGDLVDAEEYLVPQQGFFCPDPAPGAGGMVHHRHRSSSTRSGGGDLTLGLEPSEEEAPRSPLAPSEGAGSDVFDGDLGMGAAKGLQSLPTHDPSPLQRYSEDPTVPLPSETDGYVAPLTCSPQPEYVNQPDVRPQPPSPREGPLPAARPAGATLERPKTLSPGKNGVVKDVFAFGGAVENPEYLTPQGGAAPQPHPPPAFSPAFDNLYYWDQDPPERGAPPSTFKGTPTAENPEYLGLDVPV
T8 sequence (Q9Y243 whole entry, the tested form may be a part): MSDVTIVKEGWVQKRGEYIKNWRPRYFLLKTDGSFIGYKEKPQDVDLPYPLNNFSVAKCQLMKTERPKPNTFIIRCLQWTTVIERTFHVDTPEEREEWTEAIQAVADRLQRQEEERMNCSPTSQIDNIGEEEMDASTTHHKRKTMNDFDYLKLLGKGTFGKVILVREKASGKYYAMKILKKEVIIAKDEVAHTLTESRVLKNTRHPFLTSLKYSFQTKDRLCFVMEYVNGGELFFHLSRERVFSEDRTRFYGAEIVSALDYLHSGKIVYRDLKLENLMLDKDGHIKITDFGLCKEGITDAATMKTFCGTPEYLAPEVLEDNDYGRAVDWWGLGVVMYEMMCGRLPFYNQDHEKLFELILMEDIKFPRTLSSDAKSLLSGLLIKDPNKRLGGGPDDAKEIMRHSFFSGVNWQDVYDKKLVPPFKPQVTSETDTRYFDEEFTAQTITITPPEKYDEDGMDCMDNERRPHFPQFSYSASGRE
T9 sequence (P08069 31-1367): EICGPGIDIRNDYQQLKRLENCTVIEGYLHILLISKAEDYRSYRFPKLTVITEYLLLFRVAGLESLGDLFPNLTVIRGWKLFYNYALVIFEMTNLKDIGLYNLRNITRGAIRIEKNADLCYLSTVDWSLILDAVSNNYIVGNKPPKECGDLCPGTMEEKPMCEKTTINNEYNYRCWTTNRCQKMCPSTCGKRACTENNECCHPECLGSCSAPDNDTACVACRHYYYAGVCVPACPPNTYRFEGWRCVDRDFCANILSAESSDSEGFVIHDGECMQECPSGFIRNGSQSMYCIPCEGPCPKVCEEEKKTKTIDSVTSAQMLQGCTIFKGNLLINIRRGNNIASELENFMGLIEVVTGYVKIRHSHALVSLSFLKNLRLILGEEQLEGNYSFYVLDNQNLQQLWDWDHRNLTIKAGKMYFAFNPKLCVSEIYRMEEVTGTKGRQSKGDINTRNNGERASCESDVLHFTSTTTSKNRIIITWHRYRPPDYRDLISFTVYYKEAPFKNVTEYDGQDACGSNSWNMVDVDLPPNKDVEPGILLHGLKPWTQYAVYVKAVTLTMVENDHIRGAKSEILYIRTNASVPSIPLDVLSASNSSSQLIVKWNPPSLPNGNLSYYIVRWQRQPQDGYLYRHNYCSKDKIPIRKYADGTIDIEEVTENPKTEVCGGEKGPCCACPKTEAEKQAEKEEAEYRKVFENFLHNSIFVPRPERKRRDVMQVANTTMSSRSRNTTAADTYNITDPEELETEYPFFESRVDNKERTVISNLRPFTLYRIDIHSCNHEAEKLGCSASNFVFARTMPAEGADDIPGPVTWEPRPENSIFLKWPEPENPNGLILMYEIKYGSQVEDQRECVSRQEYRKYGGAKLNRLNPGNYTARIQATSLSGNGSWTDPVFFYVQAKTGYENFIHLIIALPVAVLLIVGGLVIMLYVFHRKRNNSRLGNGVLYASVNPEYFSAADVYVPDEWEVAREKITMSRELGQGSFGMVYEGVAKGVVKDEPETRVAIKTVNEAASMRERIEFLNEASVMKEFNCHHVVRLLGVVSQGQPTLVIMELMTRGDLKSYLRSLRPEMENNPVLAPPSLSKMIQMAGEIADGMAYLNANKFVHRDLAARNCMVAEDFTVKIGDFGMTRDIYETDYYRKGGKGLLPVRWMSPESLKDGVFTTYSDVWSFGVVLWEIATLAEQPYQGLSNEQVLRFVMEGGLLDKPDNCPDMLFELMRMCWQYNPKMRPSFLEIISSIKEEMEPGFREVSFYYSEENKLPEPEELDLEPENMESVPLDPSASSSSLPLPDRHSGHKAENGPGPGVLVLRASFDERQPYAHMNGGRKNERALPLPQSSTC
T1 sequence (P06239 whole entry, species assumed, the tested form may be a part): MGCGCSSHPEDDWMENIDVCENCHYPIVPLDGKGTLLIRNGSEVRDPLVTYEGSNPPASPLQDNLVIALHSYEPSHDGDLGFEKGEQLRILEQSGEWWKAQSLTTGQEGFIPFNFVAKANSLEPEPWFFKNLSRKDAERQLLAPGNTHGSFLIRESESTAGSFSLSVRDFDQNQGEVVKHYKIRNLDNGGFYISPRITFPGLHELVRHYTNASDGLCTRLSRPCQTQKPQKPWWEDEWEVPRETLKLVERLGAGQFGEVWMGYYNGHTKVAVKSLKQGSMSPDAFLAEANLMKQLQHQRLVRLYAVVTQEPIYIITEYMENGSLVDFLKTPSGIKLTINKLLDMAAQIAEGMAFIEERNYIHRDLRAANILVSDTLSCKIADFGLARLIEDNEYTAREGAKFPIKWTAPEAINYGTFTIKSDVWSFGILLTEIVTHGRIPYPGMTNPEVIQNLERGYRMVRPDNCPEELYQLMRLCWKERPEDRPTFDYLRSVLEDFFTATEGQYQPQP

Row | IC50 (Lck; [1]) [µM] | IC50 (Zap-70; [2]) [µM] | IC50 (Itk) [µM] | IC50 (EGFR) [µM] | IC50 (ErbB2) [µM] | IC50 (Kdr) [µM] | IC50 (c-Met) [µM] | IC50 (AKT; [3]) [µM] | IC50 (IGFR-1) [µM] | SMILES | IC50 (Lck; Lck-1, Table 3, class symbols) [µM] | IC50 (Zap-70) [µM] | IC50 (AKT; AKT3-1, Table 2, class symbols A-E) [µM]
1 | > 10.7 | 0.952 to 5.71 | 0.952 to 5.71 | 0.952 to 5.71 | 0.952 to 5.71 | 5.71 to 8.33 | 0.952 to 5.71 | 0.952 to 5.71 | 5.71 to 8.33 | COc1ccc(Nc2ncnc(NCCc3ccc(Cl)c(Cl)c3)n2)cc1OC [Compound 859] |  |  | 
2 | > 11.4 | > 11.4 | > 11.4 | > 11.4 | > 11.4 | 1.01 to 6.07 | < 1.01 | > 11.4 | > 11.4 | COC(=O)c1ccc(N(C)c2ncnc(Nc3ccc(OC)c(OC)c3)n2)cc1 [Compound 864] |  |  | 
3 | 1.12 to 6.71 | 1.12 to 6.71 | 9.78 to 12.6 | < 1.12 | < 1.12 | 1.12 to 6.71 | 6.71 to 9.78 | 1.12 to 6.71 | < 1.12 | COc1cc(Nc2ncnc(Nc3cccc(Cl)c3)n2)cc(OC)c1 [Compound 723] |  |  | 
4 | > 11.8 | > 11.8 | > 11.8 | 1.05 to 6.29 |  | > 11.8 | > 11.8 | > 11.8 | > 11.8 | Cc1ccc2c(c1)CCCN2c1ncnc(Nc2c(C)ccc3ccccc23)n1 [Compound 854] |  |  | 
5 | 0.949 to 5.7 | > 10.7 | > 10.7 | 0.949 to 5.7 |  | 8.31 to 10.7 | < 0.949 | 0.949 to 5.7 | > 10.7 | COc1ccc(Nc2ncnc(N(C)c3ccccc3OC(F)(F)F)n2)cc1OC [Compound 867] |  |  | 
6 | < 0.872 | > 9.81 | > 9.81 | 0.872 to 5.23 | > 9.81 | 5.23 to 7.63 | > 9.81 | > 9.81 | > 9.81 | COc1cc(Nc2ncnc(-c3cccnc3N[C@H](C)c3ccccc3)n2)cc(OC)c1OC [Compound 1110] |  |  | 
7 | < 0.872 | > 9.81 | > 9.81 | 0.872 to 5.23 | 5.23 to 7.63 | < 0.872 | > 9.81 | > 9.81 | > 9.81 | COc1cc(Nc2ncnc(-c3cccnc3N[C@@H](C)c3ccccc3)n2)cc(OC)c1OC [Compound 1111] |  |  | 
8 | > 12.3 | > 12.3 | > 12.3 | 6.57 to 9.58 | 6.57 to 9.58 | > 12.3 | > 12.3 | > 12.3 | > 12.3 | COc1ccc(Nc2ncnc(NCC(=O)c3ccccc3)n2)cc1OC [Compound 857] |  |  | 
9 | 1.02 to 6.13 | > 11.5 | 8.94 to 11.5 | 1.02 to 6.13 | 1.02 to 6.13 | < 1.02 | 1.02 to 6.13 | > 11.5 | > 11.5 | CC(C)Nc1ncccc1-c1ncnc(Nc2ccc(N3CCOCC3)cc2)n1 [Compound 1112] |  |  | 
10 | 5.64 to 8.23 | 0.94 to 5.64 | > 10.6 | 0.94 to 5.64 | 0.94 to 5.64 | 0.94 to 5.64 | 0.94 to 5.64 | > 10.6 | > 10.6 | c1ccc(Nc2ncccc2-c2ncnc(Nc3ccc(N4CCOCC4)cc3)n2)cc1 [Compound 1113] |  |  | 
11 | 1.18 to 7.11 | 1.18 to 7.11 | < 1.18 | < 1.18 | 1.18 to 7.11 | < 1.18 | < 1.18 | 1.18 to 7.11 | < 1.18 | Clc1cccc(Nc2ncnc(Nc3ccc4[nH]ncc4c3)n2)c1 [Compound 134] |  |  | 
12 | 1.08 to 6.45 | > 12.1 | > 12.1 | < 1.08 | 1.08 to 6.45 | 6.45 to 9.41 | 1.08 to 6.45 | > 12.1 | > 12.1 | COc1ccc(Nc2ncnc(N(C)c3ccccc3Cl)n2)cc1OC [Compound 865] |  |  | 
13 | > 11.8 | > 11.8 | > 11.8 | 6.3 to 9.19 |  | 6.3 to 9.19 | 6.3 to 9.19 | 6.3 to 9.19 | > 11.8 | COC(=O)c1cccc(Nc2ncnc(-n3c(Cl)nc4ccccc43)n2)c1 [Compound 1066] |  |  | 
14 | < 0.865 | > 9.73 | 0.865 to 5.19 | 0.865 to 5.19 | 0.865 to 5.19 | 0.865 to 5.19 | < 0.865 | > 9.73 | < 0.865 | COc1cc(Nc2ncnc(Nc3cc(-c4ccc(C(N)=O)cc4)n[nH]3)n2)cc(OC)c1OC [Compound 642] |  |  | 
15 | 5.7 to 8.31 | > 10.7 | > 10.7 | 0.949 to 5.7 |  | 0.949 to 5.7 | 0.949 to 5.7 | > 10.7 | > 10.7 | COc1ccc(Nc2ncnc(N(C)c3ccc(OC(F)(F)F)cc3)n2)cc1OC [Compound 866] |  |  | 
16 | > 9.35 | > 9.35 | > 9.35 | > 9.35 | 4.98 to 7.27 | < 0.831 | > 9.35 | > 9.35 | > 9.35 | COC(=O)c1cccc(Nc2ncnc(-n3c(NCc4ccc(OC)cc4)nc4ccccc43)n2)c1 [Compound 1068] |  |  | 
17 | 0.819 to 4.91 | > 9.21 | 4.91 to 7.16 | < 0.819 | < 0.819 | < 0.819 | < 0.819 | > 9.21 | 4.91 to 7.16 | CN(c1ccc2c(cnn2Cc2ccccc2)c1)c1ncnc(Nc2cccc(Cn3ccnn3)c2)n1 [Compound 677] |  |  | 
18 | 1.08 to 6.48 | > 12.1 | > 12.1 | 1.08 to 6.48 |  | < 1.08 | 1.08 to 6.48 | > 12.1 | > 12.1 | OCc1cccc(Nc2ncnc(-c3cccnc3Nc3ccccc3)n2)c1 [Compound 1115] |  |  | 
19 | 1.15 to 6.93 | > 13 | > 13 | 1.15 to 6.93 |  | 6.93 to 10.1 | 1.15 to 6.93 | 10.1 to 13 | 1.15 to 6.93 | CC(C)Nc1ncccc1-c1ncnc(Nc2ccc3[nH]ncc3c2)n1 [Compound 1116] |  |  | 
20 | > 11.8 | > 11.8 | > 11.8 | 9.2 to 11.8 |  | < 1.05 | 1.05 to 6.31 | > 11.8 | > 11.8 | c1ccc(Nc2ncccc2-c2ncnc(Nc3ccc4[nH]ncc4c3)n2)cc1 [Compound 1117] |  |  | 
21 | > 10.7 | > 10.7 | > 10.7 | > 10.7 |  | > 10.7 | > 10.7 | > 10.7 | > 10.7 | COc1ccc2[nH]cc(CCNc3ncnc(Nc4ccc(OC)c(OC)c4)n3)c2c1 [Compound 855] |  |  | 

Row | SMILES | IC50 (Lck; [1]) [µM] | IC50 (Zap-70; [2]) [µM] | IC50 (Itk) [µM] | IC50 (EGFR) [µM] | IC50 (ErbB2) [µM] | IC50 (Kdr) [µM] | IC50 (c-Met) [µM] | IC50 (AKT; [3]) [µM] | IC50 (IGFR-1) [µM] | IC50 (Lck; Lck-1, Table 3, class symbols) [µM] | IC50 (Zap-70) [µM] | IC50 (AKT; AKT3-1, Table 2, class symbols A-E) [µM]
22 | COc1cc(Nc2ncnc(-c3cccnc3Nc3ccccc3)n2)cc(OC)c1OC [Compound 1092] |  |  | > 10.5 | > 10.5 | > 10.5 |  | > 10.5 |  | > 10.5 | > 10.5 | > 10.5 | > 10.5
